14 compounds from article PMC4890880 (ACS infectious diseases, 2016) can be followed below.

Read-outs that look alike come from different tables or passages of the source.

In test [1] the test system is HepG2-A16-CD81EGFP cells. Description: cells. The conditions noted are these: Homo sapiens; for IC50: HepG2, read-out: Tox IC50; for inhibition at 50 µM: HepG2, read-out: Tox max inhibition (%) @ 50 uM.
For test [2], the system named is Plasmodium berghei (Pb-Luc) exoerythrocytic-stage parasites. Put plainly: microbe, parasite or virus in culture. The conditions noted are these: for IC50: read-out: PbLuc IC50, dose response, 1/3 dilutions, max conc. 10 or 50 uM, unit inferred.
Setting [3] is: HepG2, read-out: HepG2 Tox% @ 50 uM rep1.
The mark [4] stands for this setting: read-out: Inhibition% @ 50 uM rep1.
Where [5] appears, read: read-out: Inhibition% @ 50 uM rep2.
[6] abbreviates: read-out: PbLuc max inhibition (%) @ 50 uM.
Setting [7] is: HepG2, read-out: HepG2 Tox% @ 50 uM rep2.

As usually defined, the inhibition is the drop in the measured response relative to a control, in per cent. Regarding `CCOC(=O)C1=CN(C)C=C(C(=O)OCC)C1c1cc(Br)c(OCC)c(OC)c1` [MMV006656], in test [1] (setting [3]), the cytotoxicity at 50 µM amounted to 50%. The IC50 in test [1] was over 50 µM; in test [2], 8.23 µM. Moreover, the inhibition at 50 µM in test [1] stood at 31%; in test [2] (setting [4]), 103%; in test [2] (setting [5]), 103%; in test [2] (setting [6]), 99%.
As to `O=C1c2ccccc2-c2nnc(-c3ccc(Br)cc3)cc21` [MMV665934], in test [1] (setting [3]), the cytotoxicity at 50 µM was -9%. Besides, the inhibition at 50 µM in test [2] (setting [4]) stood at 1.49%; in test [2] (setting [5]), 29%.
In the case of `Nc1ccc(-c2nc3cc(Cc4ccc5[nH]c(-c6ccc(N)cc6)nc5c4)ccc3[nH]2)cc1` [MMV665943], the cytotoxicity at 50 µM in test [1] (setting [3]) stood at 99%. For the same compound, the IC50 worked out at 14.6 µM in test [1] and 10.1 µM in test [2]. Further, the inhibition at 50 µM in test [1] is 95%; in test [2] (setting [4]) it was 103%; in test [2] (setting [5]), 104%; in test [2] (setting [6]), 97%.
In the case of `Cc1cc(=O)oc2c1ccc1oc(C(=O)c3ccccc3)c(C)c12` [MMV006753], the cytotoxicity at 50 µM in test [1] (setting [3]) was determined as 37%. In addition, the inhibition at 50 µM worked out at 102% in test [2] (setting [4]) and 103% in test [2] (setting [5]).
In the case of `CCN(CC)CCNc1ncnc2c1[nH]c1ccc(Br)cc12` [MMV006545], the cytotoxicity at 50 µM in test [1] (setting [3]) amounted to 99%; in test [1] (setting [7]), 101%. Also, the inhibition at 50 µM in test [2] (setting [4]) was found to be 104%; in test [2] (setting [5]), 106%.
With `COc1ccc2c(c1)C1(Nc3ccccc3-c3nc4ccccc4n31)C(=O)N2` (stereo not drawn) [MMV396749], the figures for the cytotoxicity at 50 µM in test [1] (setting [3]) and in test [1] (setting [7]) were 88% and 94%, respectively. Besides, the figures for the IC50 in test [1] and in test [2] were over 50 µM and 15.9 µM, respectively. In addition, the inhibition at 50 µM in test [1] was 45%; in test [2] (setting [4]), 102%; in test [2] (setting [5]) it was 102%; in test [2] (setting [6]), 98%.
Consider `c1ccc2cc3c(Nc4ccc(N5CCOCC5)cc4)ccnc3cc2c1` [MMV006861], for which the cytotoxicity at 50 µM amounted to 78% in test [1] (setting [3]) and 99% in test [1] (setting [7]). Moreover, the inhibition at 50 µM is 103% in test [2] (setting [4]) and 105% in test [2] (setting [5]).
The matching figures for `O=C(O)C1Cc2c([nH]c3ccccc23)C(c2ccc(Cl)cc2Cl)N1` (stereo not drawn) [MMV008138]: 49%, 53%, 88% and 91%.
Turning to `O=C(Nc1ccc(-c2nc3cc4ccccc4cc3[nH]2)cc1)c1cccc(Br)c1` [MMV019241], the cytotoxicity at 50 µM in test [1] (setting [3]) was found to be 41%. Also, the inhibition at 50 µM in test [2] (setting [4]) and in test [2] (setting [5]) was 91% in each case.
Turning to `Cc1cc(C)c2c(c1)OCN(Cc1ccccc1Cl)C2` [MMV006558], the cytotoxicity at 50 µM in test [1] (setting [3]) and in test [1] (setting [7]) was 100% in each case. For the same compound, the inhibition at 50 µM was found to be 104% in test [2] (setting [4]) and 105% in test [2] (setting [5]).
For the compound `Cc1ccc(Cl)cc1N1CCN(CCCNC(=O)C2CCN(c3nc4ccccc4[nH]3)CC2)CC1` [MMV019746], the cytotoxicity at 50 µM in test [1] (setting [3]) worked out at 100%; in test [1] (setting [7]), 101%. The inhibition at 50 µM in test [2] (setting [4]) came out at 103%; in test [2] (setting [5]) it was 105%.
As for `COc1ccc(NC(=O)C2c3ccccc3C(=O)N(CC(C)C)C2c2cccs2)cc1` (stereo not drawn) [MMV000662], the cytotoxicity at 50 µM in test [1] (setting [3]) turned out to be 37%; in test [1] (setting [7]) it was 50%. Further, the values for the IC50 in test [1] and in test [2] were over 50 µM and 17.5 µM, respectively. Moreover, the inhibition at 50 µM in test [1] stood at 37%; in test [2] (setting [4]) it was 102%; in test [2] (setting [5]), 106%; in test [2] (setting [6]) it was 98%.
Consider `O=C(NCc1ccco1)C1CCN(S(=O)(=O)c2ccc(Br)cc2)CC1` [MMV007430], for which the cytotoxicity at 50 µM turned out to be 28% in test [1] (setting [3]) and 34% in test [1] (setting [7]). Moreover, the figures for the inhibition at 50 µM in test [2] (setting [4]) and in test [2] (setting [5]) were 103% and 105%, respectively.
As for `CC(=O)c1sc(NC(=O)Nc2ccc(C)cc2C)nc1C` [MMV665894], in test [1] (setting [3]), the cytotoxicity at 50 µM is -26%. The figures for the inhibition at 50 µM in test [2] (setting [4]) and in test [2] (setting [5]) were 3.42% and -0.396%, respectively.
